Assay [1] concerns the target T1, δ-opioid (Mus musculus, UniProt P32300).
T1 construct: Each of the vas deferens isolated from the mice was hung in a Magnus tube; from tissue; host or cells: isolated vas deferens of male ddy strain mice
Put plainly: δ-opioid antagonism against DPDPE in mouse vas deferens (MVD). The format is biochemical, mouse (male ddy strain). Conditions: for pA2: MVD, 100 nM sample compound added 20 minutes before cumulative DPDPE, Schild method. On the procedure:
Using mouse vas deferens (MVD), antagonistic compounds were examined for antagonism against a δ-opioid agonist DPDPE, and agonistic compounds were examined for inhibitory activity against MVD contraction by electric stimulation, and for antagonism by a δ-opioid antagonist NTI.
Male ddy strain mice were used in this experiment. Each of the vas deferens isolated from the mice was hung in a Magnus tube which was filled with a Krebes-Henseleit solution (NaCl […]; KCl 4.7 mM; CaCl2 2.5 mM; KH2 PO4 1.1 mM; NaHCO3 25 mM; glucose 11 mM), and aerated with a gas of 5% carbon dioxide and 95% oxygen and maintained at 37° C. Electric stimulation was applied through upper and lower ring-shaped platinum electrodes at 0.1 Hz and 5.0 mS. Tissue contraction was recorded on a polygraph using an isometric transducer.
Initially, DPDPE was added in a cumulative manner to determine the IC50 value (concentration for 50% inhibition of contraction induced by electric stimulation). Next, 100 nM of a sample compound was added to the system beforehand, and 20 minutes later, DPDPE was added in a cumulative manner. According to the above procedure, the ratio of the IC50 value of DPDPE in the presence of the sample compound to that in the absence of it was determined, and the pA2 value was calculated in accordance with the Schild, et al.'s method [Schild, H. O., Br. J. Pharamacol. Chamother. 4, 277 (1949)].

Assay [2] relates to capsaicin-induced cough. Put plainly: Antitussive action in rat, capsaicin-induced cough. The format is in vivo. To be noted: ip, 0.5 h, dosage for 50% cough inhibition, intraperitoneal, 10% DMSO solution, 30 minutes after administration. The method, then: Evaluation of Antitussive Action in Rat as a Model for Capsaicin-Induced Cough
Cough was induced by forcing rats to inhale capsaicin (60 μM) which was nebulized by an ultrasonic nebulizer, and fed to caps over the rats' heads through silicone tubes by a respirator. Capsaicin was fed for inhalation at a rate of 70 times/min. and 10 ml each time.
Two hundred and seventy minutes before the drug administration, capsaicin was inhaled for 5 minutes, and inducement of coughing was confirmed during this period. Thirty minutes after the drug administration, capsaicin was inhaled for 5 minutes, and the number of induced coughs during capsaicin inhalation was counted. Antitussive effect was evaluated by determining an inhibitory ratio, namely, the ratio of the number of coughs after the drug administration to that before the drug administration. Capsaicin was dissolved in saline. Each drug was dissolved in a 10% DMSO solution and intraperitoneally administered. The effect of the drug is expressed with an ED50 value which is the dosage for 50% cough inhibition

Molecules are shown by their SMILES.

The record followed here is patent US5849731A, “Indole derivatives and medical application thereof” (Toray Industries, Inc., priority 1995, dated 1998).

T1 sequence (P32300 whole entry): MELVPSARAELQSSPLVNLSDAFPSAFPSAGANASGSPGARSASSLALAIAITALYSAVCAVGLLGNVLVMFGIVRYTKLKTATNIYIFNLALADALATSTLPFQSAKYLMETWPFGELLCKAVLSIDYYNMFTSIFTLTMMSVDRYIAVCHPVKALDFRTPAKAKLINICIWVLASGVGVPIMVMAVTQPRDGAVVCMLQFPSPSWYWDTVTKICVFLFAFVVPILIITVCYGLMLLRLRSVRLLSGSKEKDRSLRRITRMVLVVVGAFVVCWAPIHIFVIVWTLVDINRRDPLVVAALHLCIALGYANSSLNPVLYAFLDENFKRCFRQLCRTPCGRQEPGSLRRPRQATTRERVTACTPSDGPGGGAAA

For `Cc1ccc2c3c1c1c(n3CCC2)[C@@H]2Oc3c(O)ccc4c3[C@@]23CCN(CC2CC2)[C@H](C4)[C@]3(O)C1` [Compound 5, 17-cyclopropylmethyl-6,7-didehydro-4,5α-epoxy-3,14β-dihydroxy-1',7'-trimethylene-4'-methyl-6,7,2',3'-indolomorphinan], the Kb (as a rule, the equilibrium dissociation constant of an antagonist, usually derived from a functional assay) in assay [1] was 5.01 nM. It took a dose of 20.8 µg/kg to reach the 50% effect level in assay [2] (ED50).

`Oc1ccc2c3c1O[C@H]1c4c(c5cccc6c5n4CCC6)C[C@@]4(O)[C@@H](C2)N(CC2CC2)CC[C@]314` [Compound 4, 17-cyclopropylmethyl-6,7-didehydro-4,5α-epoxy-3,14β-dihydroxy-1',7'-trimethylene-6,7,2',3'-indolomorphinan]: in assay [1], the Kb is 0.398 nM. The ED50 (usually the dose at which the effect has come halfway, by size or by number of responders) in assay [2] turned out to be 8.58 µg/kg.

With `Cc1cc2c3c(c1)c1c(n3CCC2)[C@@H]2Oc3c(O)ccc4c3[C@@]23CCN(CC2CC2)[C@H](C4)[C@]3(O)C1` [Compound 7, 17-cyclopropylmethyl-6,7-didehydro-4,5α-epoxy-3,14β-dihydroxy-1',7'-trimethylene-5'-methyl-6,7,2',3'-indolomorphinan], the Kb in assay [1] is 5.01 nM. The compound also gave an ED50 in assay [2] of 16.3 µg/kg.

As to `Oc1ccc2c3c1O[C@H]1c4c(c5cccc6c5n4Cc4ccccc4-6)C[C@@]4(O)[C@@H](C2)N(CC2CC2)CC[C@]314` [Compound 3, 17-cyclopropylmethyl-6,7-didehydro-4,5α-epoxy-3,14β-dihydroxy-1',7'-(2",3"-benzotrimethylene)-6,7,2',3'-indolomorphinan], in assay [1], the Kb was 2.51 nM. The ED50 in assay [2] is 4.37 µg/kg.

Regarding `COc1ccc2c3c(n4c2c1CCC4)[C@@H]1Oc2c(O)ccc4c2[C@@]12CCN(CC1CC1)[C@H](C4)[C@]2(O)C3` [Compound 6, 17-cyclopropylmethyl-6,7-didehydro-4,5α-epoxy-3,14β-dihydroxy-1',7'-trimethylene-6'-methoxy-6,7,2',3'-indolomorphinan], the Kb in assay [1] is 3.16 nM. In assay [2], this compound registered an ED50 of 9.43 µg/kg.

`Oc1ccc2c3c1O[C@H]1c4c(c5ccc6cccc7c6c5n4CC7)C[C@@]4(O)[C@@H](C2)N(CC2CC2)CC[C@]314` [Compound 2, 17-cyclopropylmethyl-6,7-didehydro-4,5α-epoxy-3,14β-dihydroxy-1',3"-ethylene-6',7'-benzo-6,7,2',3'-indolomorphinan]: the Kb in assay [1] was 2 nM. Besides, the ED50 in assay [2] is 1.71 µg/kg.

On to `Oc1ccc2c3c1O[C@H]1c4c(c5cccc6c5n4CC6)C[C@@]4(O)[C@@H](C2)N(CC2CC2)CC[C@]314` [Compound 1, 17-Cyclopropylmethyl-6,7-didehydro-4,5α-epoxy-3,14β-dihydroxy-1',7'-ethylene-6,7,2',3'-indolomorphinan], for which the pA2 (usually the negative logarithm of the molar antagonist concentration that doubles the agonist concentration needed for the same response) in assay [1] was 9.2. The ED50 in assay [2] is 9.14 µg/kg.

In assay [1], `COc1ccc2c3c1O[C@H]1c4c(c5cccc6c5n4CCC6)C[C@@]4(O)[C@@H](C2)N(CC2CC2)CC[C@]314` [Compound 11, 17-Cyclopropylmethyl-6,7-didehydro-4,5α-epoxy-3-methoxy-14β-hydroxy-1',7'-trimethylene-6,7,2',3'-indolomorphinan] registered a pA2 of 8.2. Further, the ED50 in assay [2] was determined as 3.43 µg/kg.

Consider `Oc1ccc2c3c1O[C@H]1c4c(c5cc(F)cc6c5n4CCC6)C[C@@]4(O)[C@@H](C2)N(CC2CC2)CC[C@]314` [Compound 10, 17-cyclopropylmethyl-6,7-didehydro-4,5α-epoxy-3,14β-dihydroxy-1',7'-trimethylene-5'-fluoro-6,7,2',3'-indolomorphinan], for which, in assay [1], the Kb is 1.58 nM. In assay [2], this compound showed an ED50 of 15.7 µg/kg.

Compound `Oc1ccc2c3c1O[C@H]1c4c(c5cccc6c5n4CCCC6)C[C@@]4(O)[C@@H](C2)N(CC2CC2)CC[C@]314` [Compound 9, 17-cyclopropylmethyl-6,7-didehydro-4,5α-epoxy-3,14β-dihydroxy-1',7'-tetramethylene-6,7,2',3'-indolomorphinan] showed a pA2 in assay [1] of 8.5. The compound also came in with an ED50 in assay [2] of 12.2 µg/kg.
